Laboratory results reported in ChEMBL document CHEMBL1201862, “PubChem BioAssay data set” (2004).
The source made the active and inactive calls.

What was measured:
Type in all cases: functional
[1] = target: T1, Sentrin-specific protease 8 (Homo sapiens, UniProt Q96LD8); assay: SENP8 protease inhibitors, SAR follow-up, biochemical, luminescence (AID 504501)
T1 sequence (Q96LD8 whole entry): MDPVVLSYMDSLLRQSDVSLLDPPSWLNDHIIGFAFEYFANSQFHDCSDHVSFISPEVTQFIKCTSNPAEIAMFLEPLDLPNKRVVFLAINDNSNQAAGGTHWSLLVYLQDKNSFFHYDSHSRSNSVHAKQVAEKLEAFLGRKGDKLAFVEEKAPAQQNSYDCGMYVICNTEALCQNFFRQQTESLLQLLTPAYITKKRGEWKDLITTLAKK

[2] = target: T2, Sentrin-specific protease 7 (Homo sapiens, UniProt Q9BQF6); assay: SENP7 protease inhibitors, SAR follow-up, biochemical, luminescence (AID 504497)
T2 sequence (Q9BQF6 whole entry): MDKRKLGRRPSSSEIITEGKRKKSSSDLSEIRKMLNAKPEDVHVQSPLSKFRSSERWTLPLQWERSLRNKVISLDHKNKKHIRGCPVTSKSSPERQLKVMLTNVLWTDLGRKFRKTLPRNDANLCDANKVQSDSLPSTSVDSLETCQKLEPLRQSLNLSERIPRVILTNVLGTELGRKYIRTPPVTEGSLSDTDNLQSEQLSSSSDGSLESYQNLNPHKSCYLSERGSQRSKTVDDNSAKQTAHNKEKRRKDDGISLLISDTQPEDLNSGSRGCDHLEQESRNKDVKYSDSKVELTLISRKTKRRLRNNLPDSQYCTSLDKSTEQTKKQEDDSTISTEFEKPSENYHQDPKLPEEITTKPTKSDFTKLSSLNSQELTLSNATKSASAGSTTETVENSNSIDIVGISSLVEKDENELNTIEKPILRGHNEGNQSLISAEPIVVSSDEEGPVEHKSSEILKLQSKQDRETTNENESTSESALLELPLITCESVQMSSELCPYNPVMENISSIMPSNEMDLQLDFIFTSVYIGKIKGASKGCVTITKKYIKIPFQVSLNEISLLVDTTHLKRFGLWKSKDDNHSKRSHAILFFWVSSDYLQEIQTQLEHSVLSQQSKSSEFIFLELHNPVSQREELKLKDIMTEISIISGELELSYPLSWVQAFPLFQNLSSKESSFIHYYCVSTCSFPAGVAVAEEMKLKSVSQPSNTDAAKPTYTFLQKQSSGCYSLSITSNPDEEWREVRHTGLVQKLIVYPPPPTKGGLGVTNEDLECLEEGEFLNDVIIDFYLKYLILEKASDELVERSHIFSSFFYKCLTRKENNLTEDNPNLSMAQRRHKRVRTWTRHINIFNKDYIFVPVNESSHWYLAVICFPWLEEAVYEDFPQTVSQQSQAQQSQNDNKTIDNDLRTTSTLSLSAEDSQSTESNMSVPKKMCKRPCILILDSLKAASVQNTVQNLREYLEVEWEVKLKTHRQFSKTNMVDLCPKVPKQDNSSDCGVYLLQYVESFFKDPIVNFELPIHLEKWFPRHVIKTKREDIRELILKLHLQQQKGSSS

[3] = target: T3, Sentrin-specific protease 6 (Homo sapiens, UniProt Q9GZR1); assay: SAR Analysis of small molecule inhibitors of Sentrin-specific protease 6 (SENP6) using a Luminescent assay. [Related pubchem assays (depositor defined):AID2582, AID2599]
T3 sequence (Q9GZR1 whole entry): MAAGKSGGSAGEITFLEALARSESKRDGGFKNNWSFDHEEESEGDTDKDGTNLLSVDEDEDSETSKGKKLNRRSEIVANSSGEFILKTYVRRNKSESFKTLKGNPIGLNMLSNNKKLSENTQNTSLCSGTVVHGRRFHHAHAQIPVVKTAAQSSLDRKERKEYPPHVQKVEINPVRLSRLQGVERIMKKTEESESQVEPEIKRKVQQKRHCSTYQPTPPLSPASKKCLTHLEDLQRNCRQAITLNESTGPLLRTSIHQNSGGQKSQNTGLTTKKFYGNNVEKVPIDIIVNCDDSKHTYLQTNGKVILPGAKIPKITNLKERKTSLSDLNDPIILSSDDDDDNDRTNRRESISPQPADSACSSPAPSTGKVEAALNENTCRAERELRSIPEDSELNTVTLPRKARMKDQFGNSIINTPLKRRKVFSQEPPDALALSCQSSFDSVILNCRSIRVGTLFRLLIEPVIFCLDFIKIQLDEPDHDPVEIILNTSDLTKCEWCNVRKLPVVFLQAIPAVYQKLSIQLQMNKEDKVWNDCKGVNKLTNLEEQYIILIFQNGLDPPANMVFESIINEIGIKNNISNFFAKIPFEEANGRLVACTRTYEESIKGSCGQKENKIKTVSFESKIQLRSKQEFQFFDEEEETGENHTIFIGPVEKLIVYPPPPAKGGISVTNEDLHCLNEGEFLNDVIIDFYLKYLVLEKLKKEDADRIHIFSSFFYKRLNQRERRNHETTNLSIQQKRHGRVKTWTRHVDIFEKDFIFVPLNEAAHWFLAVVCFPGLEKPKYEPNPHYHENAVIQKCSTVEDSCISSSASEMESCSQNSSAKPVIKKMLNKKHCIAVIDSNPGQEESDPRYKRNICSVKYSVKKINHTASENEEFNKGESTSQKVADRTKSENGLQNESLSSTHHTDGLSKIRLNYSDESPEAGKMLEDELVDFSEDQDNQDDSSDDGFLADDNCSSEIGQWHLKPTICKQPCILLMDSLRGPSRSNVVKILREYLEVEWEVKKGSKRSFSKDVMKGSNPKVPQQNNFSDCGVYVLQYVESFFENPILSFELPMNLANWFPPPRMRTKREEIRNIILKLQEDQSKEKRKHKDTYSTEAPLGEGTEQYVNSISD

Caspase-3 = target: T4, Caspase-3 (Homo sapiens, UniProt P42574); assay: SAR Analysis of small molecule inhibitors of Sentrin-specific proteases (SENPs) using a Caspase-3 Selectivity assay. [Related pubchem assays (depositor defined):AID2540, AID2599, AID434973, AID489001]
T4 sequence (P42574 whole entry): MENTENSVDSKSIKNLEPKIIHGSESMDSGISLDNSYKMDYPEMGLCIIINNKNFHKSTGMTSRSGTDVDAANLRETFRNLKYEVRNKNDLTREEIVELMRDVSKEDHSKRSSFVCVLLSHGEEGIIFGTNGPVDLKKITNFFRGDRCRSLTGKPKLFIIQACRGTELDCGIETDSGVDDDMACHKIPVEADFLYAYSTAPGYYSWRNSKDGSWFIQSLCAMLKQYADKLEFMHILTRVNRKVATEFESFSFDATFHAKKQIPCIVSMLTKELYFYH

Aurora kinase B = Aurora kinase B (Homo sapiens, UniProt Q96GD4)
Aurora kinase A = Aurora kinase A (Homo sapiens, UniProt O14965);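 note: value from the Navigating the Kinome kinase panel profiling, panel entry STK6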
[4] = target: Vascular endothelial growth factor receptor 2 (Homo sapiens, UniProt P35968)
Sequence of Vascular endothelial growth factor receptor 2 (P35968 whole entry): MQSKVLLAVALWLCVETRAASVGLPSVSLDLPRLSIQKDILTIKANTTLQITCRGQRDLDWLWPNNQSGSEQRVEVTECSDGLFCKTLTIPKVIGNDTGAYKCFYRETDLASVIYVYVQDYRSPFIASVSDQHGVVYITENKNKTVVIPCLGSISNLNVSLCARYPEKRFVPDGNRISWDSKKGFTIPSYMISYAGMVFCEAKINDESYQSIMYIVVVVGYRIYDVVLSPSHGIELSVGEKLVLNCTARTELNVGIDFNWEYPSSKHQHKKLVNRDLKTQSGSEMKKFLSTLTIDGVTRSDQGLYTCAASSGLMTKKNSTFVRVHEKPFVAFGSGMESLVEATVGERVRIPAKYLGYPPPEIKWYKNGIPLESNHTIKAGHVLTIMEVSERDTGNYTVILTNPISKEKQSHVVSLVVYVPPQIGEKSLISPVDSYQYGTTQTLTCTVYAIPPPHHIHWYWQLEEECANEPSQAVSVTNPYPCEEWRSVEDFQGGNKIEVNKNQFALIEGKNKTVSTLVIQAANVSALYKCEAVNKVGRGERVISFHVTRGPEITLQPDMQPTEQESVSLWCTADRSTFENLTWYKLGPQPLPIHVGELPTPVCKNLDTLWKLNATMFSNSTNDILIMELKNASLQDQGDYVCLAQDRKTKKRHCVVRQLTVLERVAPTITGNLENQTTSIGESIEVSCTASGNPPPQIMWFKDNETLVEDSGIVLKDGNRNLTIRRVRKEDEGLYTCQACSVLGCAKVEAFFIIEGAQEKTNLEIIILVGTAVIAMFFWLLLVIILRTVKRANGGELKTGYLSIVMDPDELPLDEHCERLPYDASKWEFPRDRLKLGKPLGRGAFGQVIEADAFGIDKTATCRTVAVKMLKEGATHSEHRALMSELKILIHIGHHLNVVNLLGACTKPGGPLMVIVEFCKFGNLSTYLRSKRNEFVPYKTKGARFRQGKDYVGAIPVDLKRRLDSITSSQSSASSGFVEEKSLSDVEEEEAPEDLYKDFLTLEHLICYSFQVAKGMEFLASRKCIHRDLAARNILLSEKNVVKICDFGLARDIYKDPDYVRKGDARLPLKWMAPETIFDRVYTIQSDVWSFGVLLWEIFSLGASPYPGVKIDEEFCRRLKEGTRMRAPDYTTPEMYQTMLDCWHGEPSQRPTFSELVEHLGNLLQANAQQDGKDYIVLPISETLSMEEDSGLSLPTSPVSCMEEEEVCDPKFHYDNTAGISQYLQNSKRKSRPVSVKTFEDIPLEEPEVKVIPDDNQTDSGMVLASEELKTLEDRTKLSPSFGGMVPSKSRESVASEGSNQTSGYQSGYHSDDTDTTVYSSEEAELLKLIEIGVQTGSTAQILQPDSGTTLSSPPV

Sequence of Aurora kinase A (O14965 whole entry): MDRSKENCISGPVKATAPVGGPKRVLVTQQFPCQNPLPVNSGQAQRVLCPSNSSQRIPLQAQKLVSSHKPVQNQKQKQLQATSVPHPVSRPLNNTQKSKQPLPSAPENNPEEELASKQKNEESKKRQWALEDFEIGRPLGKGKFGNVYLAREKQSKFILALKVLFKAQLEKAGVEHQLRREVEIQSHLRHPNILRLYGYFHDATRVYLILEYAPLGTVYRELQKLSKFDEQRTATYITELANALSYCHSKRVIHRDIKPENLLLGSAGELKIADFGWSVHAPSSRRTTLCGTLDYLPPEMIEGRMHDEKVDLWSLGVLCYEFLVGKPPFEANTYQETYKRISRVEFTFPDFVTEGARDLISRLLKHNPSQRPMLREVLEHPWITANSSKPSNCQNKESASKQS
Sequence of Aurora kinase B (Q96GD4 whole entry): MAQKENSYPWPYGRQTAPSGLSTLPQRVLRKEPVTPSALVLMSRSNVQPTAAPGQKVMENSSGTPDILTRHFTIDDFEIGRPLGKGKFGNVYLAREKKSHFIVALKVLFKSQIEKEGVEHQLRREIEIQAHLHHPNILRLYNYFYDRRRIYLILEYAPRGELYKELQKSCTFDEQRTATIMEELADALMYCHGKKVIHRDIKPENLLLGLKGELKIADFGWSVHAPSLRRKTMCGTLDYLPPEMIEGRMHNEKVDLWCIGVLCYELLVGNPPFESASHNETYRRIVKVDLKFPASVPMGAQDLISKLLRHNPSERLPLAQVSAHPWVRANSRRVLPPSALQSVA

| Compound | IC50 [1] | IC50 [2] | IC50 [3] | IC50 (Caspase-3) | Ki (Aurora kinase B) | Ki (Aurora kinase A) | Ki [4] |
| --- | --- | --- | --- | --- | --- | --- | --- |
| N#Cc1ccc(-c2nc(/C=C/c3ccccc3)no2)cc1 | > 99 µM (inactive) | > 99 µM (inactive) | > 99 µM (inactive) | > 99 µM (inactive) | – | – | – |
| NC(=NO)c1cccc(S(=O)(=O)Nc2ccc3c(c2)C(=NO)c2ccccc2-3)c1 | – | – | – | – | 0.02 µM (active) | 1 µM (active) | > 5.01 µM (inactive) |
| O=C(Nc1ccc(-n2cnc3ccccc32)cc1)Nc1cccc(C(F)(F)F)c1 | – | – | – | – | 0.00251 µM (active) | 0.501 µM (active) | 0.00316 µM (active) |
